From patent US11439611B2, “Administration of serine protease inhibitors to the stomach” (LEADING BIOSCIENCES, INC., priority 2010, dated 2022)

Key:
Format in all cases: in vivo
[1] = Rat model of severe ischemic intestine with enteral oxygen carrier; conditions: 30 min ischemia, 17 ml solution for a 230 g rat, saturated for 10 min in oxygen
Description: More specifically, the feasibility was illustrated in a model with 30 min ischemia with perfluorodecalin solution 17 ml for 230 g rat) previously saturated for 10 min in oxygen. Thus, it should be noted that gastric, duodenal, jejunal, and ileal irrigation (or otherwise exposure) may be used as a stand-alone or supplemental treatment in human and other mammals. Most typically, the volume of the oxygen carrier will be adjusted such as to allow intimate contact with the oxygen carrier throughout the stomach, duodenum, jejunum, and/or ileum.

digestive enzymes = test: Shock treatment in rats with an enteral protease inhibitor to block digestive enzymes
Description: With respect to suitable quantities of one or more protease inhibitors, the inventors observed in various animal models that shock treatment using protease inhibitors to block digestive enzymes requires for at least some protease inhibitors a minimum effective dosage that is substantially above the dosage contemplated in the '283 patent. For example, using tranexamic acid in rats, the minimum effective dose was 100 mg/kg (127 mM in the enteral solution with 17 ml to a 350 gm rat). Here, tranexamic acid was given to rats in 18 cc of fluid. The equivalent concentration in 2 liters (deemed suitable as human dose) is 3.2 grams. The maximum dose tested in rats was 1125 mg/kg, which is equivalent to 36 grams for a human dose in 2 liters of fluid to be administered into the lumen of the stomach or intestine.

[2] = Case study: human patient with Fournier's gangrene, septic shock and multiple organ failure, treated with gabexate mesilate
Description: For example, as reported in a case study from the Cheng-Hsin General Hospital (that was approved by Human Ethics Committee and written consent by the patient), a heart transplant patient was regularly followed-up in the clinic with cyclosporine, mycophenolate, and prednisolone therapy for four years. The cyclosporine level was kept around 150, […] without evidence of rejection or infection during this period of follow-up. […] The wound was self-managed by the patient and deteriorated after one week. They were hospitalized and immediately admitted to the intensive care unit. At presentation, blood pressure was 80/40 mmHg in spite of aggressive fluid management with 2 liters of crystalloid and colloid fluid over 5 hours and vasopressor therapy with dopamine […]. […] They were intubated and received broad-spectrum antibiotics, including teichomycin, meropenem, and caspofungin. […] The diagnosis was Fournier's gangrene complicated with septic shock and multiple organ failure. Due to persistent septic shock and worsening septic markers, the patient received in addition a diverting colectomy and intravenous total parental nutrition. Furthermore, the patient also received a second wide debridement. The wound culture was positive with multiple drug resistance Pseudomonas aeruginosa and Bacteroides thetaiotaomicron.
Intravenous gabexate mesilate was given for severe septic shock and elevated amylase and lipase values (as markers for presence of pancreatic enzymes) at a dose of 3000 mg/day. At the same time, the patient stopped all enteral feeding and total parental nutrition was given with positive fluid balance of more than 1 liter per day.
Treatment was then switched to enteral gabexate mesilate infusion by continuous feeding into the stomach via nasogastric tube at a dose of 3000 mg/day in 2000 ml of normal saline. […] On the third day, the dose of gabexate mesilate was reduced to 300 mg/day in a fluid volume of 2000 ml and kept at this level for 10 days before discharge of the patient from the intensive care unit. […] Three days after enteral gabexate mesilate treatment they were extubated. On day 13, the immunosuppressant medication was restored with reduced dosage compared to the time before hospitalization and they were discharged from the ward after one month of admission. Five months after discharge at the time of this report writing the patient was alive.

[3] = enteral via nasogastric tube, 3000 mg/day, within two days

For `FC1(F)C(F)(F)C(F)(F)C2(F)C(F)(F)C(F)(F)C(F)(F)C(F)(F)C2(F)C1(F)F` (stereo not shown) [perfluorodecalin, Perfluorodecalin], the “intestinal damage / entry of digestive enzymes into the wall of the intestine” value [1] was “minimize intestinal damage”.
With `NC[C@H]1CC[C@H](C(=O)O)CC1` [tranexamic acid] the “minimum effective dose, as concentration in the enteral solution” value (digestive enzymes; 17 ml to a 350 gm rat) was 127 mM, the “equivalent of the minimum effective rat dose in 2 liters (human dose)” value (digestive enzymes; extrapolated from rat to a human dose in 2 liters) was 3.2 grams and the minimum effective dose (digestive enzymes; rats, enteral, given in 17-18 ml of fluid to a 350 gm rat) was 100 mg/kg.
In the case of “[Ethyl p-(6-guanidinohexanoyloxy) benzoate] methanesulfonate [gabexate mesilate]”, the “effectiveness of a single dose/day given via NG tube in human” value ([2]; 2 to 4 grams in 1 to 2 liter solution with GOLYTELY (PEG) or saline, over multiple days (up to 14)) is reported as “very effective”, the blood pressure ([2]; continuous feeding into the stomach via nasogastric tube, 3000 mg/day in 2000 ml normal saline, within two days, minimal dose of dopamine) is reported as “stabilized” and the “amylase, lipase and white blood cell (WBC) count” value ([2]; enteral via nasogastric tube, 3000 mg/day, then 300 mg/day from the third day for 10 days, FIG. 1A) is reported as “reduced to control values”. The glucose level [2, 3] was “could be controlled by reduced dose of subcutaneous insulin”, the “patient's level of conscience” value [2, 3] was “increased” and the “x-ray of the abdomen (ileus)” value ([2]; enteral via nasogastric tube, day 16 vs day 1, FIG. 1C) was “improved ileus”. For the same molecule, the survival ([2]; five months after discharge) was “alive”, the “plasma amylase and lipase values” ([2]; intravenous, 3000 mg/day, over the next 12 hours, enteral feeding stopped, total parenteral nutrition) was “did not reduce” and the extubation ([2]; three days after enteral treatment) was “extubated”.
